Experimental data from US20220378773A1, “METHODS FOR TREATING LEUKEMIA AND USE OF A LEUKEMIC STEM CELL SIGNATURE TO PREDICT CLINICAL SENSITIVITY TO THERAPIES” (CELGENE CORPORATION, priority 2019, published 2022).
Where “and” joins values, the source holds several entries; their conditions need not be identical. Identical values can stand only once.

Tests used:
[1] = system: primary acute myeloid leukemia blasts; experiment: In vitro apoptosis (Annexin V) and cell count of primary AML blasts; type: cell-based, human
Experimental: Annexin V-PE apoptosis detection kit (BD Pharmingen, BD Bioscience, USA) was used to assess apoptosis.
(§1) Cell Culture: Materials used for in vitro assays of AML cells included X-VIVO 10 medium supplemented with 15% BIT, and growth factors including 100 ng/mL of stem cell factor, 20 ng/mL of IL-6, 20 ng/mL of G-CSF, 20 ng/mL of IL-3, 100 ng/mL of Flt 3 ligand (each provided by Amgen, USA), 20 ng/mL of GM-CSF (R&D Systems, USA), and 50 ng/mL of thrombopoietin (Kirin Brewery, Japan).
(§2) Assay Procedure: After 4 and 24 hours of in vitro culture with DMSO or Compound D, cells were harvested for GSPT1 expression and apoptosis. Levels of GSPT1 were analyzed by flow cytometry using median fluorescence intensity (MFI) and normalized against DMSO controls. Apoptosis was also analyzed by flow cytometry and measured as percentage of cells which were positive for cleaved caspase 3/7.
(§3) Viably frozen primary leukemia cells were thawed and plated in suspension culture in the Iscove's Modified Dulbecco's Medium plus 15% BIT Serum Substitute (Stem Cell Technology, Canada), supplemented with multiple human growth factors. Compound D was added to the culture at indicated concentrations.
(§4) For GSPT1 expression, intracellular flow cytometry (FACS) was performed at 24 hours in culture by staining cells with GSPT1 conjugated with Alexa Fluor 647. For apoptosis, cells were harvested at 24 hours in culture and stained with Annexin V-PE and 7-aminoactinomycin D (7AAD) (BD Biosciences, USA).

[2] = Tolerability and body weight of AML xenograft mice; type: in vivo, NOD/SCID mice
Experimental: Treatment and Assay Procedure: At Day 21 post AML transplantation, mice were randomly grouped and dosed with either Compound D at 2.5 mg/kg or vehicle (5% N-methyl-2-pyrrolidone [NMP]/45% polyethylene glycol [PEG] 400/50% saline), intraperitoneally twice daily in a dose volume of 50 μL for 4 weeks. All animals were euthanized at scheduled termination (1 day after the last treatment) and bone marrow was collected from the right femur (injected bone marrow) and the left femur and left and right tibia (non-injected bone marrow). Cells isolated from injected or non-injected bone marrow were analyzed by flow cytometry to assess AML engraftment, and were viably frozen for future secondary engraftment analysis.
Based on the pilot data (FIG. 4) in which one of the 2 samples responded to Compound D dosing at 2.5 mg/kg BID for 2 weeks, the duration of dosing was extended to 4 weeks to determine if the mice could tolerate longer Compound D dosing. Mice transplanted with 3 different AML samples were closely monitored for clinical conditions during treatment.

[3] = molecular target: T1, GSPT1 (Homo sapiens, UniProt P15170+Q96SW2); experiment: In vitro GSPT1 degradation in primary AML cells (flow cytometry, MFI); type: cell-based
T1 construct: endogenous in cells; host or cells: primary AML patient cells (peripheral blood mononuclear cells) in short-term suspension culture
Experimental: 6.2.3.1. In Vitro Degradation of G1 to S Phase Transition Protein 1 (GSPT1) by Compound D and Apoptosis Assay
Preparation of Test Article Stock Solutions and Dilutions: Compound D was prepared in anhydrous DMSO to make a 1 M stock solution then further diluted to final concentrations of 3, 30, and 100 nM.
as §1, §2, §3, §4

[4] = type: physicochemical
Excerpt: Formulation: 5% NMP/45% polyethylene glycol (PEG) 400/50% Saline; NMP—Catalogue no. 69118 (new no. M79603-1L), Fluka; PEG400—Catalogue no. 81172-1L, Fluka; Saline—0.9% sodium chloride.
Preparation: Weigh the desired amount of compound in glass vial. Add NMP and vortex. Make sure that entire compound is wet. Add PEG400 and vortex until clear solution without particulates. Add saline slowly and mix thoroughly for about a minute with hand held homogenizer with disposable tip.

T1 sequence (P15170 whole entry): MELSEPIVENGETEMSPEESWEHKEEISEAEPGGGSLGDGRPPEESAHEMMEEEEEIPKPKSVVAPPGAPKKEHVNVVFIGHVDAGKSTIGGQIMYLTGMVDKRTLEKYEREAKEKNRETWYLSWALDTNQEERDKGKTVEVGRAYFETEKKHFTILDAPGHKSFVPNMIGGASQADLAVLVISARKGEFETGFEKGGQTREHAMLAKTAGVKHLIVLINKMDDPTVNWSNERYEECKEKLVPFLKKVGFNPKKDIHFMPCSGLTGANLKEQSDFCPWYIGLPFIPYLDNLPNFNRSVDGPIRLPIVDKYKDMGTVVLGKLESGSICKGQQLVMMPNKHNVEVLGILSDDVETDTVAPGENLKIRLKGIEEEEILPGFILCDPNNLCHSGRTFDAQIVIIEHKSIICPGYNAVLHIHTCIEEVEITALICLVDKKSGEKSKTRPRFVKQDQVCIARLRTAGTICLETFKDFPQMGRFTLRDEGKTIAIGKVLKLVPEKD
T1 sequence (Q96SW2 whole entry): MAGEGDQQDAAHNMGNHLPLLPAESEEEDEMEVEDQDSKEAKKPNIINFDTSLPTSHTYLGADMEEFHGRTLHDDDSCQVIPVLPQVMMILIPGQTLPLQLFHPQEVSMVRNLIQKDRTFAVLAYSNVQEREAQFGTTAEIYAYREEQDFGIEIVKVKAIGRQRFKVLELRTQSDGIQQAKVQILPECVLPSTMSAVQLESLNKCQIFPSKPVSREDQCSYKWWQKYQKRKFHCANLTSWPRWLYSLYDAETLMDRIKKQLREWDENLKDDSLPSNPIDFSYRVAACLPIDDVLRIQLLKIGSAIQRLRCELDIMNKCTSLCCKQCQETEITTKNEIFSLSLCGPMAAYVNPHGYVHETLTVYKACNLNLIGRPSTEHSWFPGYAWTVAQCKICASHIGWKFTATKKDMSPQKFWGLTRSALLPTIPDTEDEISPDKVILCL
T1 sequence (Q16531 whole entry partner): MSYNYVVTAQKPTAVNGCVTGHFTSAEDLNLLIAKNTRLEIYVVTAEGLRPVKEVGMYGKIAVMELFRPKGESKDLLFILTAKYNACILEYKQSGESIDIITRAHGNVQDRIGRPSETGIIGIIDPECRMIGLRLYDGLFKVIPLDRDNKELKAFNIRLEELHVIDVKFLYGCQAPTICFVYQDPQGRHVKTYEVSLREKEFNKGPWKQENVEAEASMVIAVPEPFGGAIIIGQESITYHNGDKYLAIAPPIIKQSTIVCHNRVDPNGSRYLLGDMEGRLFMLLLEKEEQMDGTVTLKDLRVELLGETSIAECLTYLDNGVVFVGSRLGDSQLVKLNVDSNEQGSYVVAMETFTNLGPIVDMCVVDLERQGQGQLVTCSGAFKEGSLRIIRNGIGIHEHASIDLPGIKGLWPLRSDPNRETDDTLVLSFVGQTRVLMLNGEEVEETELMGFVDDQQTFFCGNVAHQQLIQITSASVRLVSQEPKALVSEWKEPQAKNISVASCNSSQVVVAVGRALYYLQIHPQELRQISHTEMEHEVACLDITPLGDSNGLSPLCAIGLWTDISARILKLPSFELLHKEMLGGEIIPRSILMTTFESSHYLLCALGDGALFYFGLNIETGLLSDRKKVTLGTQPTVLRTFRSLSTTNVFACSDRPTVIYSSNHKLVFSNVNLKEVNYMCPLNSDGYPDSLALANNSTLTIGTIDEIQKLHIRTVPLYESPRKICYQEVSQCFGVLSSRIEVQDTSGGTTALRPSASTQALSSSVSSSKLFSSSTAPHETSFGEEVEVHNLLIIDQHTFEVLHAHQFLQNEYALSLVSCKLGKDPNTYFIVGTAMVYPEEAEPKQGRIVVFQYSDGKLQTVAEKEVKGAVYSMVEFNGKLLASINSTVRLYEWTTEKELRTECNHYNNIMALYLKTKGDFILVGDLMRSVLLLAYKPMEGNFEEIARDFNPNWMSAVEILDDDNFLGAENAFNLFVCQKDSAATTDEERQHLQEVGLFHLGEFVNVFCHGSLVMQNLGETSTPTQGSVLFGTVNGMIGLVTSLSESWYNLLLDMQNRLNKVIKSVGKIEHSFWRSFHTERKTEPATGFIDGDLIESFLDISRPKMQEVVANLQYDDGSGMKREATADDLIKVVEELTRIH

O=C1CCC(N2Cc3cc(CNC(=O)C(F)(F)c4ccc(Cl)cc4)ccc3C2=O)C(=O)N1 (stereo not shown) [Compound D, 2-(4-chlorophenyl)-N-((2-(2,6-dioxopiperidin-3-yl)-1-oxoisoindolin-5-yl)methyl)-2,2-difluoroacetamide]
apoptosis ([1]; 4 hours): not observed | apoptosis, high vs low LSC17 score samples ([1]; 24 hours): induced apoptosis at higher levels in samples with high LSC17 scores | induction of apoptosis, number of samples ([1]; 24 hours, concentration-dependent): observed in 3 of the 10 samples tested | live cells ([1]; Section 6.3 samples): reduction of live cells | apoptosis ([1]; Section 6.3 samples, 24 hours): Increased apoptosis | cell numbers ([1]; with increased concentration, 24 hours): reduced cell numbers for most samples | tolerability ([2]; 4 weeks of treatment, mice with different primary AML samples): well tolerated | Body weight, Week 1, average (mean) ([2]; group mean): Avg = 21.8 | Body weight, Week 2, average (mean) ([2]; group mean): Avg = 21.7 | Body weight, Week 3, average (mean) ([2]; group mean): Avg = 21.6 | Body weight, Week 1 ([2]; individual mice): 21 g (5×) and 23 g (2×) and 20 g (2×) and 22 g (4×) and 24 g (2×) | Body weight, Week 2 ([2]; individual mice): 22 g (3×) and 20 g (3×) and 24 g (2×) and 23 g (3×) and 19 g and 21 g (3×) | Body weight, Week 3 ([2]; individual mice): 23 g and 21 g (4×) and 19 g and 22 g (5×) and 24 g (2×) and 20 g (2×) | paralysis / death ([2]; mouse transplanted with Patient Sample 120860, last day of 4-week treatment): Only one Compound D-treated mouse was found paralyzed | GSPT1 degradation, high vs low LSC17 score samples ([3]; 100 nM, 24 hours): samples with high LSC17 scores had significantly higher GSPT1 degradation | effect on reduction of GSPT1 levels, concentration dependence ([3]; 3, 30, 100 nM): concentration dependent | GSPT1 expression in AML cells ([3]; Section 6.3 samples, 24 hours exposure): decreased GSPT1 expression | GSPT1 levels in AML cells ([3]; ten primary AML patient samples, 4 and 24 hours, vs control): reduced GSPT1 levels as early as 4 hours post treatment | stability in formulation [4]: not stable in the formulation over time
